What is called IC50 is the concentration that gives 50% inhibition. What is called EC50 is the concentration that produces a half-maximal response. By CC50 is commonly meant the concentration that lowers cell viability or growth by half. Usually AC50 stands for the concentration giving half of the maximal activity seen.

Activity calls are given as the source filed them.

Experiment [1] addresses T1, Nuclear receptor subfamily 0 group B member 1 (Homo sapiens, UniProt P51843). Description: Luminescence-based cell-based high throughput dose response assay for inhibitors of the orphan nuclear receptor subfamily 0, group B, member 1 (DAX1; NR0B1). [Related pubchem assays (depositor defined):AID504766, AID504790]. It is filed as functional.
The next experiment concerns HEK293. Description: cells. It is filed as functional, cell-based. The conditions noted are these: Homo sapiens.
A short description of experiment [2]: NIH-3T3 fibroblast cytotoxicity, dose response, cytotoxicity control, cell-based, fluorescence, Alamar Blue, secondary assay (AID 2327).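 Further: NIH-3T3 mouse fibroblasts cultured with fluconazole at 8 µg/mL.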 It is filed as functional. On the technique in general: Alamar Blue is a resazurin reagent that responds to reducing activity.
For experiment [3], the target named is T2, Rac GTPase-activating protein 1 (Homo sapiens, UniProt Q9H0H5).
T2 sequence (Q9H0H5 whole entry): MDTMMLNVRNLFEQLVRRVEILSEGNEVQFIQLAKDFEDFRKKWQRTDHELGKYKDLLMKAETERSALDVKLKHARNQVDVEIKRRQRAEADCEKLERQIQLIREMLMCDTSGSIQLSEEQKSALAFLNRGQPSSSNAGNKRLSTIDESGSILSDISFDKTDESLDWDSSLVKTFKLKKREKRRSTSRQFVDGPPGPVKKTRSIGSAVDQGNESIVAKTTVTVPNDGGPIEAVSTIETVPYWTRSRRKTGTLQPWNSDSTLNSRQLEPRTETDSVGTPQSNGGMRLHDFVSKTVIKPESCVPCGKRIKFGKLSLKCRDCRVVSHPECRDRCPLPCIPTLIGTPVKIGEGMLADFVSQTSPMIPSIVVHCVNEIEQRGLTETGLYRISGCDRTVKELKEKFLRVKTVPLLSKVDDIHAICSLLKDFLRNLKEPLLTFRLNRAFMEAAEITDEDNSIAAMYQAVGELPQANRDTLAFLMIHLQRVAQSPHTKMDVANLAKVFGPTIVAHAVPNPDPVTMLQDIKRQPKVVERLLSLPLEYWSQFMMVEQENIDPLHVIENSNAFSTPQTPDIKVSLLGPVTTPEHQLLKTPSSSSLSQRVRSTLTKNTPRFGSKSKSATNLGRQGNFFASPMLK
Description: blockers of MgcRacGAP-driven Rac1 GTP hydrolysis – biochemical, ADP Hunter fluorescence, primary and confirmatory, confirmation (AID 624330). Format: functional.

The nature of experiment [4]: fluconazole-exposed Candida albicans growth modulators – fluorescence, retest, confirmation (AID 2467). Format: functional, cell-based.
The target of experiment [5] is Serine/threonine-protein phosphatase (Candida dubliniensis (strain CD36 / CBS 7987 / NCPF 3949 / NRRLY-17841) (Yeast), UniProt B9W6M3). Briefly: blockers of CaCl2-induced CDRE-lacZ signaling – S. cerevisiae, luminescence, secondary, dose response (AID 2388).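 Further: yeast reporter cells carrying a calcineurin-responsive lacZ construct stimulated with calcium chloride; luminescent beta-galactosidase reporter signal in whole cells rather than isolated phosphatase activity; potency for inhibition where a drop in reporter signal means calcineurin blockade.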 Format: functional, cell-based.
Experiment [6] concerns the target ATP-dependent molecular chaperone HSP82 (Candida albicans (strain WO-1) (Yeast), UniProt C4YTQ8). Description: steroid-induced GRE reporter decrease in yeast – S. cerevisiae, luminescence, Hsp90 inhibitor project, dose response (AID 2400).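 Further: beta-galactosidase luminescence from glucocorticoid response element reporter as proxy for Hsp90 function; inhibitor potency where signal loss means Hsp90 inhibition.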 Format: functional, cell-based.
Experiment [7] addresses T3, Endoribonuclease toxin MazF (Escherichia coli K-12, UniProt P0AE70).
T3 sequence (P0AE70 whole entry): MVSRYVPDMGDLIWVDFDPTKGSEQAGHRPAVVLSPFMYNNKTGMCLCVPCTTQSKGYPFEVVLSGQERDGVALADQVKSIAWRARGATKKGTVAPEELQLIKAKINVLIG
Description: MazEF toxin-antitoxin RNase activation – biochemical, fluorescence, single-stranded RNA substrate, SAR follow-up (AID 588603). It is filed as functional.

Experiment [8] addresses T3, Endoribonuclease toxin MazF. Description: SAR analysis of small molecule activators of the MazEF TA System via a fluorescence-based single-stranded RNase assay counterscreen. [Related pubchem assays (depositor defined):AID504720, AID504743]. Format: functional. (Counterscreens check selectivity or assay interference.)
A further experiment relates to MEF. Description: SAR analysis of small molecule cytotoxicity of MazEF TA System activators in embryonic fibroblast (MEF) cells. [Related pubchem assays (depositor defined):AID504720, AID504743]. It is filed as functional. The note with it: Mus musculus.
Experiment [9] deals with T3, Endoribonuclease toxin MazF. Description: activation of MazEF endoribonuclease cleavage – biochemical, fluorescence, single-stranded RNA substrate, uHTS hits, dose response (AID 588481). It is filed as functional.
Experiment [10] shares this target. Description: substrate-only fluorescence increase artefacts – biochemical, single-stranded RNase substrate, counter-screen for MazEF activator project, dose response (AID 588502). Format: functional.
The target of the next experiment is Cysteine protease ATG4B (Homo sapiens, UniProt Q9Y4P1). It is filed as functional.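 Further: Fluorescence-based dose-response confirmation assay measuring inhibition of ATG4B activity.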
A further experiment concerns the target Phospholipase A2 (Homo sapiens, UniProt P04054). Format: functional.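 Further: confirmatory dose-response counterscreen on phospholipase A2, testing hits that came from an ultra-high-throughput screen for ATG4B inhibitors.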
A further experiment concerns the target Phospholipase D1 (Homo sapiens, UniProt Q13393). Description: cellular phospholipase D1 inhibition IC50 – cell-based, dose response (AID 602151).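 Further: cellular PLD1 assay in Calu-1 cells stimulated with PMA.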 It is filed as functional.
Another experiment concerns the target Phospholipase D2 (Homo sapiens, UniProt O14939). Briefly: cellular phospholipase D2 inhibition IC50 – cell-based, dose response (AID 602147).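 Further: cellular assay in HEK293 cells overexpressing GFP-tagged PLD2.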 It is filed as functional.
The next experiment in a line: cells. It is filed as functional, cell-based.
Experiment [11] is described as follows: Luminescence Cell-Based Dose Confirmation HTS to Identify Inhibitors of Platelet Dense Granule Release. [Related pubchem assays: 1663 (Primary HTS), 1678 (Summary of Project)]. Format: functional.
Experiment [12] has as its target Luciferin 4-monooxygenase (Photinus pyralis, UniProt P08659). Description: inhibition of purified Photinus pyralis luciferase – biochemical, luminescence, dose response (AID 1891).
In experiment [13] the target is T1, Nuclear receptor subfamily 0 group B member 1. It is filed as functional, cell-based.
The next experiment has as its target T4, Streptokinase A (Streptococcus pyogenes serotype M1, UniProt P10520).
T4 sequence (P10520 whole entry): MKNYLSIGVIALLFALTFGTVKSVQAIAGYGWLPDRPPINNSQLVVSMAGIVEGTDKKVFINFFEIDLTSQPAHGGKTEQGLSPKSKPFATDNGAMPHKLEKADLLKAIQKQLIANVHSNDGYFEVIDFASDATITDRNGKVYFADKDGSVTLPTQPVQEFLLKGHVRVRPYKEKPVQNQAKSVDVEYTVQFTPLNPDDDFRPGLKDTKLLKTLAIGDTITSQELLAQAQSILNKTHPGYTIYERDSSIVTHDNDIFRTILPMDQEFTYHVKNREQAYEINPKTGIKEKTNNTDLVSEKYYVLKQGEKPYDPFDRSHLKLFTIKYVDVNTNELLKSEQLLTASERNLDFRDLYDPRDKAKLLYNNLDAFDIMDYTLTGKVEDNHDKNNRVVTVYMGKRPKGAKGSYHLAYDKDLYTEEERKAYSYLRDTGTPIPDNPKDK
Briefly: viability-normalized secreted streptokinase activity reduction – plasminogen activation absorbance, OD405, dose response (AID 1914).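 Further: secreted streptokinase activity via plasminogen activation per viability signal from cell pellet.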 It is filed as functional, Streptococcus pyogenes M1 GAS.

The next experiment deals with Streptococcus. Description: GAS UMAA2166 growth inhibition – luminescence, BacTiterGlo, counter-screen for streptokinase expression inhibitor project, dose response (AID 1915).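 Further: potency for reduction of bacterial viability or growth.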 Format: functional, organism-based.
The subject of the next experiment is HeLa. Briefly: ATP-based viability loss in HeLa cells – cell-based, CellTiter-Glo luminescence, cherry-pick samples, cytotoxicity control for MITF activator project, dose response (AID 540259). Format: functional. The note with it: Homo sapiens.
Experiment [14] in a line: viability loss in HepG2 hepatoma cells – cell-based, ATP luminescence, cherry-pick, activator set 2, cytotoxicity control, dose response (AID 1053143). Format: functional.

T1 sequence (P51843 whole entry): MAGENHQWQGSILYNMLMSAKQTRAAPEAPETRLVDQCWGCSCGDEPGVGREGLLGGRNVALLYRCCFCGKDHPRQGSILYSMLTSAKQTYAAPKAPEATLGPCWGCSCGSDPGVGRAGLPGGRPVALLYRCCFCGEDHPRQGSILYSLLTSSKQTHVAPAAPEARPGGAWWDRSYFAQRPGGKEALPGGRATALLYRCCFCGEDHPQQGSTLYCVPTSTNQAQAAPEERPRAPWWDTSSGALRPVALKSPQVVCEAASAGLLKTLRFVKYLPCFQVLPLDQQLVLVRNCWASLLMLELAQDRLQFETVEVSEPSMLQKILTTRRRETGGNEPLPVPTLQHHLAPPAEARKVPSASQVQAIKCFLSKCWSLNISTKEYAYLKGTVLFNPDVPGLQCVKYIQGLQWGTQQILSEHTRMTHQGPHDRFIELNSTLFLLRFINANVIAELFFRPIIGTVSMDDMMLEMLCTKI
Sequence of Serine/threonine-protein phosphatase (B9W6M3 whole entry): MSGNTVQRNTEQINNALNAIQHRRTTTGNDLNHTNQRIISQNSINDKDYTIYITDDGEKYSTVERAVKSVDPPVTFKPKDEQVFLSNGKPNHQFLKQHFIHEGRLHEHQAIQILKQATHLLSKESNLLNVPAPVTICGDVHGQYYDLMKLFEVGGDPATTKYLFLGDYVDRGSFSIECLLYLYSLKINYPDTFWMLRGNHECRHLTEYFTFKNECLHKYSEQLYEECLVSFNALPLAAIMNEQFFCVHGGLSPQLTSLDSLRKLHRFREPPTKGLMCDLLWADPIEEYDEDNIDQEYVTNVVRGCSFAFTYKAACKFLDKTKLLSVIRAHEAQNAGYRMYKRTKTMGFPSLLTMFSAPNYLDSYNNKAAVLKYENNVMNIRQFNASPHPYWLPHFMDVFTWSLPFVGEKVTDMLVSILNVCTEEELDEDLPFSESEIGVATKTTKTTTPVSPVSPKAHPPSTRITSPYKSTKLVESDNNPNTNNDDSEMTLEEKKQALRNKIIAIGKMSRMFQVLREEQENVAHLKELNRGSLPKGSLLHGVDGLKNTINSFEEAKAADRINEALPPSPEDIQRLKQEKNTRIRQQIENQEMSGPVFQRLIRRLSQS
Sequence of Luciferin 4-monooxygenase (P08659 whole entry): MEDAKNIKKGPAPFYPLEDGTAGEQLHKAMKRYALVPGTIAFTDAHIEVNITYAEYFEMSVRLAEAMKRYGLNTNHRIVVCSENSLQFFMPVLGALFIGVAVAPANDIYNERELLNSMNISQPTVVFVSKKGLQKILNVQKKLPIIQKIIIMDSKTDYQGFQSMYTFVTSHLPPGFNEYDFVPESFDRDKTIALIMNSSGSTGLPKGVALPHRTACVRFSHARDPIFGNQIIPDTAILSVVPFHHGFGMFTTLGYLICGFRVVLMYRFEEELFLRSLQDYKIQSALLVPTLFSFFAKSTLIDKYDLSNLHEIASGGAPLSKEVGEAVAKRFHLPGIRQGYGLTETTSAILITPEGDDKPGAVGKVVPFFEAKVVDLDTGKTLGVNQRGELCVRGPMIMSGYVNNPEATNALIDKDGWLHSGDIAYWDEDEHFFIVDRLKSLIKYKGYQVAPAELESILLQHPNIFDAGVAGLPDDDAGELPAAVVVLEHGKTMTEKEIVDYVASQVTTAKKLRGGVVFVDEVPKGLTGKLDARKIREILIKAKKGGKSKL
Sequence of Phospholipase D2 (O14939 whole entry): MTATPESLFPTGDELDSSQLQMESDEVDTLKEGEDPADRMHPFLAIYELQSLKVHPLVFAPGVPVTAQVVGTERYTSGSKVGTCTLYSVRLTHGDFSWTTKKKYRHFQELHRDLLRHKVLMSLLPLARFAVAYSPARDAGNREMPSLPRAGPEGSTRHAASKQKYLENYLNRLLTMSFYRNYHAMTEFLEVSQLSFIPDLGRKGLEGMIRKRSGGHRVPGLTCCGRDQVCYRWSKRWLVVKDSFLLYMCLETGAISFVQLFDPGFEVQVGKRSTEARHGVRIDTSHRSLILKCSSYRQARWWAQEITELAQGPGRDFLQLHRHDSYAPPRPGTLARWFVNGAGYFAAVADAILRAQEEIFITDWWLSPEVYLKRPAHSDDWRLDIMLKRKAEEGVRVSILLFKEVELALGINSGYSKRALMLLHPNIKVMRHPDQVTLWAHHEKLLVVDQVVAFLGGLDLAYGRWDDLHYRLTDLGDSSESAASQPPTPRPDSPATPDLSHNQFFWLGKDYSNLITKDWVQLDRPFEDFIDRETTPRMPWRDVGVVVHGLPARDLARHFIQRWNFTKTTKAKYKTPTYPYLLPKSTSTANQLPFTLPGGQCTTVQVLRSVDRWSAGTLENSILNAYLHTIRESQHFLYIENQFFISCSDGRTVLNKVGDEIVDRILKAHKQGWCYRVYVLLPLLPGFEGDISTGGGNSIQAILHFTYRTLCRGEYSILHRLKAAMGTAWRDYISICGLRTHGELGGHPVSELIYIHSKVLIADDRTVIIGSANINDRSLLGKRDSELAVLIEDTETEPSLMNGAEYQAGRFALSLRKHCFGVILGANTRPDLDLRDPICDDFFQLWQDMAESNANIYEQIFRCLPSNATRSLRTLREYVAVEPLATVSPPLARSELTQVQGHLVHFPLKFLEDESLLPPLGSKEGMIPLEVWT
Sequence of Cysteine protease ATG4B (Q9Y4P1 whole entry): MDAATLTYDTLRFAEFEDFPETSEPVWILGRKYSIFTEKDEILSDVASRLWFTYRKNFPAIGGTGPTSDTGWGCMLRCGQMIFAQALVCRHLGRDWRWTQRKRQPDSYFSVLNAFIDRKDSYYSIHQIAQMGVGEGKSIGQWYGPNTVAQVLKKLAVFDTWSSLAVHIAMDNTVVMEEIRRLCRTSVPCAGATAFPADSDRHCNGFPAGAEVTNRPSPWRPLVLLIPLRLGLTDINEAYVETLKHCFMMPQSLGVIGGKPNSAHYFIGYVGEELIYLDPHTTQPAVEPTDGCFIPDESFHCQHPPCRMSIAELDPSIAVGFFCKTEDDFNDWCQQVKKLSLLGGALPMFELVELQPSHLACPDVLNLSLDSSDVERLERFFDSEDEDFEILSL
Sequence of ATP-dependent molecular chaperone HSP82 (C4YTQ8 whole entry): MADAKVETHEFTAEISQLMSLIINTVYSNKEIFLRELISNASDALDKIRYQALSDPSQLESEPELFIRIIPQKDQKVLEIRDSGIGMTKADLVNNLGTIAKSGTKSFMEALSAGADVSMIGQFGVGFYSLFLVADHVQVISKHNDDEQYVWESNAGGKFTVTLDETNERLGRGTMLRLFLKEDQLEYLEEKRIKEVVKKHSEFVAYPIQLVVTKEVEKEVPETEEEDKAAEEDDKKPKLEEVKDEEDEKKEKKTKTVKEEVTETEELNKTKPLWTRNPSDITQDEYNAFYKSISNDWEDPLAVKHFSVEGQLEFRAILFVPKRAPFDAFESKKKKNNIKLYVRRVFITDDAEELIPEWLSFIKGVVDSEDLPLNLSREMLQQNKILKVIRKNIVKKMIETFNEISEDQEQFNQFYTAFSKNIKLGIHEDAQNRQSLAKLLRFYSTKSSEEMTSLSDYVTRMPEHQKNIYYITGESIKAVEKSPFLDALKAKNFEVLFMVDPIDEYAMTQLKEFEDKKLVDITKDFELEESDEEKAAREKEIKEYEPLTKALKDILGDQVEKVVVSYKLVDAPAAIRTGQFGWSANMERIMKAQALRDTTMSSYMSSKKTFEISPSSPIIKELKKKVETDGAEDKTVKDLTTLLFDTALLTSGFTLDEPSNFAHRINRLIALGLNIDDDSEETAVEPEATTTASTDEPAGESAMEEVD
Sequence of Phospholipase A2 (P04054 whole entry): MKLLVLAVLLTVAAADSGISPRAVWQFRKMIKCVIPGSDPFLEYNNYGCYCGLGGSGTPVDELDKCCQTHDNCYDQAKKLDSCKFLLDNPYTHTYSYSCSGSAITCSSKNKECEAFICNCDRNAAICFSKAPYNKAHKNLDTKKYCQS
Sequence of Phospholipase D1 (Q13393 whole entry): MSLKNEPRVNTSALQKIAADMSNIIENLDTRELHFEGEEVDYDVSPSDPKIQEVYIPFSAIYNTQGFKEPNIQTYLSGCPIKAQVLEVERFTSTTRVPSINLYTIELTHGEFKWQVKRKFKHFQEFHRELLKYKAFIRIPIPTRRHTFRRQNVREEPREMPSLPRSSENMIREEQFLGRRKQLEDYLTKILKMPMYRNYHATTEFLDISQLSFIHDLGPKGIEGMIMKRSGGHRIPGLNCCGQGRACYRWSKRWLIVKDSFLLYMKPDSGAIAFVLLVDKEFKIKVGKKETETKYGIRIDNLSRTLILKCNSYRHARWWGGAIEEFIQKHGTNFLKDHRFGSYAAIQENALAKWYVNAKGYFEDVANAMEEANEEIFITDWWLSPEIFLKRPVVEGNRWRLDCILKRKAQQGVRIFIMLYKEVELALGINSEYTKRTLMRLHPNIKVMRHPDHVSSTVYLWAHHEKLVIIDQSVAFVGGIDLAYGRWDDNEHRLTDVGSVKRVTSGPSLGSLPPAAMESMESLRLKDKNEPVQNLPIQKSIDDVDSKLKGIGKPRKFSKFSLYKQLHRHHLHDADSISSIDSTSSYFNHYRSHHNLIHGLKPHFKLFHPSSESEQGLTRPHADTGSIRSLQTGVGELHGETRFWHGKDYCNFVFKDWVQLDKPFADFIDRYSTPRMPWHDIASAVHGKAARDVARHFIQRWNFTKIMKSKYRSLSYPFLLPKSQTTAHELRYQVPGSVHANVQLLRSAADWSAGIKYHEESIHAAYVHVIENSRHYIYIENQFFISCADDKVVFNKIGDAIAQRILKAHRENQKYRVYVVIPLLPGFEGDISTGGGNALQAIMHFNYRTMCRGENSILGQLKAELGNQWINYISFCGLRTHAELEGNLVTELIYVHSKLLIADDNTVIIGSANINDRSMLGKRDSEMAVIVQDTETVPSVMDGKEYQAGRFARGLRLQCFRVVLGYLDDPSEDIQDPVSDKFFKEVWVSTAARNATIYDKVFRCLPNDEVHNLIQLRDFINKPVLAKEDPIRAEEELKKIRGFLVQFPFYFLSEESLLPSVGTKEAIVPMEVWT

For the compound `Cc1nc(N)nc(COc2ccccc2)n1`, the IC50 (in experiment [1]; with HEK293) was > 67.4 µM (inactive) in each case.

In the case of `COc1ccc(-n2c(=O)c3c4c(sc3n3c(S)nnc23)CCCC4)cc1`, the EC50 was 34.1 µM (inconclusive) in experiment [2], 1.17 µM (active) in experiment [4], > 180 µM (inactive) in [5] and 4.45 µM (active) in experiment [6]. Further, the IC50 in [3] was 35.7 µM (active).

For the compound `O=C(NC(=O)c1ccc(F)cc1)Nc1nc(-c2cccs2)cc(C(F)(F)F)n1`, the EC50 in [7] is > 99 µM (inactive); in [8] it was > 99 µM (inactive); in experiment [9] it was 20.3 µM (inactive); in experiment [10] it was > 99 µM (inactive). In the experiment with MEF, the CC50 was > 99 µM (inactive).

On to `O=C(c1ccc(Cl)c(S(=O)(=O)Nc2ccccc2C(=O)N2CCc3ccccc3C2)c1)N1CCc2ccccc2C1`, for which the IC50 is 15.6 µM (active) at Cysteine protease ATG4B and 10.7 µM (active) on Phospholipase A2.

As for `C[C@@H](CN1CCC(n2c(=O)[nH]c3ccccc32)CC1)NC(=O)c1ccc(F)c(F)c1`, the IC50 was 0.02 µM (active) on Phospholipase D1 and 1.6 µM (active) on Phospholipase D2.

For `O=C(Nc1ccccc1)C(=O)Nc1ccc2c(c1)N(C(=O)C1CC1)CCC2`, the IC50 (in “cells”; in experiment [13]) was > 67.5 µM (inactive) throughout. In addition, the EC50 is 3.74 µM (active) in experiment [11], 1.13 µM (active) in experiment [12], > 150 µM (not active) on Streptokinase A and 25.4 µM (active) with Streptococcus. The AC50 in the experiment on HeLa is 14.1 µM (active); in experiment [14], 26 µM (active).
